# Test system: pustular psoriasis, gangrenous pyoderma, capillitium erosive dermatitis and Dick & Syme syndrome
# Details: 200 mg/day for 3 weeks, followed by 100 mg/day for three weeks
# Experimental: Double blind clinical studies were carried out on patients suffering from pustular psoriasis, gangrenous pyoderma, capillitium erosive dermatitis and Dick & Syme syndrome. Patients were treated with Nimesulide, at a dosage of 200 mg/day for 3 weeks, followed by 100 mg/day for three weeks.
# At the end of the treatment, the following parameters were evaluated: number of the skin lesions extent of the skin lesions relief from pain at the nodule sites
# [1] = patients, at the end of the treatment
smiles,measurement,setting,value
CS(=O)(=O)Nc1ccc([N+](=O)[O-])cc1Oc1ccccc1 [Nimesulide],"remission of the ""disease""",in some cases,complete remission
same,side effects,patients,no side effects were observed
same,"effectiveness in the treatment of the ""diseases""",[1],statistically effective
same,extent of the skin lesions,[1],regression of the skin lesions
same,number of the skin lesions,[1],regression of the skin lesions
same,relief from pain at the nodule sites,[1],almost complete disappearance of pain
